Results published in patent publication US8354441B2, “Oxazoline derivatives” (Hoffmann-La Roche Inc., priority 2009, dated 2013).

Assays:
mouse TAAR1 = target: T1, mouse TAAR1 (Mus musculus, UniProt Q923Y8); assay: TAAR1 radioligand binding with [3H]-rac-2-(1,2,3,4-tetrahydro-1-naphthyl)-2-imidazoline, membranes of stably transfected HEK293 cells; details: first value of the cell, read-out: Ki (μM) mouse/rat: mouse
T1 construct: expressed in transfected cells; host or cells: HEK293 (ATCC # CRL-1573), stably transfected with pIRESneo2 expression plasmid
Protocol: (§1) For the construction of expression plasmids the coding sequences of human, rat and mouse TAAR 1 were amplified from genomic DNA essentially as described by Lindemann et al.. The Expand High Fidelity PCR System (Roche Diagnostics) was used with 1.5 mM Mg^2+ and purified PCR products were cloned into pCR2.1-TOPO cloning vector (Invitrogen) following the instructions of the manufacturer. PCR products were subcloned into the pIRESneo2 vector (BD Clontech, Palo Alto, Calif.), and expression vectors were sequence verified before introduction in cell lines.
(§2) HEK293 cells (ATCC # CRL-1573) were cultured essentially as described by Lindemann et al. (2005). For the generation of stably transfected cell lines HEK293 cells were transfected with the pIRESneo2 expression plasmids containing the TAAR coding sequences (described above) with Lipofectamine 2000 (Invitrogen) according to the instructions of the manufacturer, and 24 hrs post transfection the culture medium was supplemented with 1 mg/ml G418 (Sigma, Buchs, Switzerland). After a culture period of about 10 d clones were isolated, expanded and tested for responsiveness to trace amines (all compounds purchased from Sigma) with the cAMP Biotrak Enzyme immunoassay (EIA) System (Amersham) following the non-acetylation EIA procedure provided by the manufacturer.
(§3) Cells at confluence were rinsed with ice-cold phosphate buffered saline without Ca^2+ and Mg^2+ containing 10 mM EDTA and pelleted by centrifugation at 1000 rpm for 5 min at 4° C. The pellet was then washed twice with ice-cold phosphate buffered saline and the cell pellet was frozen immediately by immersion in liquid nitrogen and stored until use at −80° C. The cell pellet was then suspended in 20 ml HEPES-NaOH (20 mM), pH 7.4 containing 10 mM EDTA, and homogenized with a Polytron (PT 3000, Kinematica) at 10,000 rpm for 10 s. The homogenate was centrifuged at 48,000×g for 30 min at 4° C. and the pellet resuspended in 20 ml HEPES-NaOH (20 mM), pH 7.4 containing 0.1 mM EDTA (buffer A), and homogenized with a Polytron at 10,000 rpm for 10 s. The homogenate was then centrifuged at 48,000×g for 30 min at 4° C. and the pellet resuspended in 20 ml buffer A, and homogenized with a Polytron at 10,000 rpm for 10 s. Protein concentration was determined by the method of Pierce (Rockford, Ill.). The homogenate was then centrifuged at 48,000×g for 10 min at 4° C., resuspended in HEPES-NaOH (20 mM), pH 7.0 including MgCl2 (10 mM) and […] homogenized with a Polytron at 10,000 rpm for 10 s.
(§4) The binding assay was performed at 4° C. in a final volume of 1 ml, and with an incubation time of 30 min. The radioligand [^3H]-rac-2-(1,2,3,4-tetrahydro-1-naphthyl)-2-imidazoline was used at a concentration equal to the calculated Kd value of 60 nM to give a bound at around 0.1% of the total added radioligand concentration, and a specific binding which represented approximately 70-80% of the total binding. Non-specific binding was defined as the amount of [^3H]-rac-2-(1,2,3,4-tetrahydro-1-naphthyl)-2-imidazoline bound in the presence of the appropriate unlabelled ligand (10 μM). Competing ligands were tested in a wide range of concentrations (10 pM-30 μM). […] Each experiment was performed in duplicate. All incubations were terminated by rapid filtration through UniFilter-96 plates (Packard Instrument Company) and glass filter GF/C, pre-soaked for at least 2 h in polyethylenimine 0.3%, and using a Filtermate 96 Cell Harvester (Packard Instrument Company). The tubes and filters were then washed 3 times with 1 ml aliquots of cold buffer B. Filters were not dried and soaked in Ultima gold (45 μl/well, Packard Instrument Company) and bound radioactivity was counted by a TopCount Microplate Scintillation Counter (Packard Instrument Company).

rat TAAR1 = target: T2, rat TAAR1 (Rattus norvegicus, UniProt Q923Y9); assay: as above; details: second value of the cell, read-out: Ki (μM) mouse/rat: rat
T2 construct: expressed in transfected cells; host or cells: HEK293 (ATCC # CRL-1573), stably transfected with pIRESneo2 expression plasmid
Protocol: as §1, §2, §3, §4

T1 sequence (Q923Y8 whole entry): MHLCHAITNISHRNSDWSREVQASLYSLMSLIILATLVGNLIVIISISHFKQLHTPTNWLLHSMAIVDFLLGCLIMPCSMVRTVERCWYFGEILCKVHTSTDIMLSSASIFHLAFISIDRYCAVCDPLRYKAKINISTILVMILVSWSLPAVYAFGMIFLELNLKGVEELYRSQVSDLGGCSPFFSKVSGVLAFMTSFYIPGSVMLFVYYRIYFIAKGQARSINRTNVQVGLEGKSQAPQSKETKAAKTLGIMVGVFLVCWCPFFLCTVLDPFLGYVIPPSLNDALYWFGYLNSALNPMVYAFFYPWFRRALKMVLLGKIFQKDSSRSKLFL
T2 sequence (Q923Y9 whole entry): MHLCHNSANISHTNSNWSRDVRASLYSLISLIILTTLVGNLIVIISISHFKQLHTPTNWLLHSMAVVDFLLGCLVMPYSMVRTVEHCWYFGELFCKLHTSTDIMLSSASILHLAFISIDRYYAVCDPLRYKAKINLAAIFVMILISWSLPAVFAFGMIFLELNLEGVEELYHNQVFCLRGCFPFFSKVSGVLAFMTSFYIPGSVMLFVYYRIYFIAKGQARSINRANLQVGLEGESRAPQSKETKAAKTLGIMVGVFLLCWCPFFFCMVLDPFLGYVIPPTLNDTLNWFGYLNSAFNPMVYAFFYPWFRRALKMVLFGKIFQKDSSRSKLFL

Row | Ki (mouse TAAR1) [µM] | Ki (rat TAAR1) [µM] | SMILES
1 | 0.0029 | 0.0024 | COc1ncccc1C(=O)Nc1ccc(CC[C@H]2COC(N)=N2)cc1 [Example 115, N-{4-[2-((S)-2-Amino-4,5-dihydro-oxazol-4-yl)-ethyl]-phenyl}-2-methoxy-nicotinamide]
2 | 0.0006 | 0.001 | NC1=N[C@@H](CCc2ccc(NC(=O)c3ccc(Cl)cn3)cc2)CO1 [Example 33, 5-Chloro-pyridine-2-carboxylic acid {4-[2-((S)-2-amino-4,5-dihydro-oxazol-4-yl)-ethyl]-phenyl}-amide]
3 | 0.0035 | 0.0016 | NC1=N[C@@H](CCc2ccc(NC(=O)c3ccnc(Cl)c3F)cc2)CO1 [Example 174, (S)-N-(4-(2-(2-Amino-4,5-dihydrooxazol-4-yl)ethyl)phenyl)-2-chloro-3-fluoroisonicotinamide]
4 | 0.0034 | 0.0014 | NC1=N[C@@H](CCc2ccc(NC(=O)c3ccc4cnccc4n3)cc2)CO1 [Example 104, [1,6]Naphthyridine-2-carboxylic acid {4-[2-((S)-2-amino-4,5-dihydro-oxazol-4-yl)-ethyl]-phenyl}-amide]
5 | 0.0003 | 0.0006 | NC1=N[C@@H](CCc2ccc(NC(=O)c3ccc(Cl)cc3F)cc2)CO1 [Example 136, (S)-N-(4-(2-(2-Amino-4,5-dihydrooxazol-4-yl)ethyl)phenyl)-4-chloro-2-fluorobenzamide]
6 | 0.0007 | 0.0021 | NC1=N[C@@H](CCc2ccc(NC(=O)c3ncc(C(F)(F)F)cc3Cl)cc2)CO1 [Example 101, 3-Chloro-5-trifluoromethyl-pyridine-2-carboxylic acid {4-[2-((S)-2-amino-4,5-dihydro-oxazol-4-yl)-ethyl]-phenyl}-amide]
7 | 0.003 | 0.0009 | NC1=N[C@@H](CCc2ccc(NC(=O)Cc3ccc(F)cc3)cc2)CO1 [Example 69, N-{4-[2-((S)-2-Amino-4,5-dihydro-oxazol-4-yl)-ethyl]-phenyl}-2-(4-fluoro-phenyl)-acetamide]

More lines, now with the values behind:

Row | SMILES | Ki (mouse TAAR1) [µM] | Ki (rat TAAR1) [µM]
8 | NC1=N[C@@H](CCc2ccc(NC(=O)Nc3ncc(Cl)cn3)cc2)CO1 [Example 151, 1-{4-[2-((S)-2-Amino-4,5-dihydro-oxazol-4-yl)-ethyl]-phenyl}-3-(5-chloro-pyrimidin-2-yl)-urea] | 0.0071 | 0.0028
9 | Cc1nc(C(=O)Nc2ccc(CC[C@H]3COC(N)=N3)cc2)c(C(F)(F)F)o1 [Example 216, (S)-N-(4-(2-(2-Amino-4,5-dihydrooxazol-4-yl)ethyl)phenyl)-2-methyl-5-(trifluoromethyl)oxazole-4-carboxamide] | 0.0027 | 0.0061
10 | C[C@H]1OC(N)=N[C@H]1CCc1ccc(NC(=O)c2ccc(Cl)cc2)cc1 [Example 206, N-(4-(2-((4S,5R)-2-Amino-5-methyl-4,5-dihydrooxazol-4-yl)ethyl)phenyl)-4-chlorobenzamide] | 0.0076 | 0.0013
11 | NC1=N[C@@H](CCc2ccc(NC(=O)C3CCC3)cc2)CO1 [Example 45, Cyclobutanecarboxylic acid {4-[2-((S)-2-amino-4,5-dihydro-oxazol-4-yl)-ethyl]-phenyl}-amide] | 0.0026 | 0.0017
12 | CC(C)c1cncc(C(=O)Nc2ccc(CC[C@H]3COC(N)=N3)cc2)n1 [Example 230, (S)-N-(4-(2-(2-Amino-4,5-dihydrooxazol-4-yl)ethyl)phenyl)-6-isopropylpyrazine-2-carboxamide] | 0.0009 | 0.0016
13 | NC1=N[C@@H](C[C@@H](Oc2ccc(NC(=O)c3ccc(Cl)cc3)cc2)C(F)(F)F)CO1 [Example 150, N-{4-[(R)-1-((S)-2-Amino-4,5-dihydro-oxazol-4-ylmethyl)-2,2,2-trifluoro-ethoxy]-phenyl}-4-chloro-benzamide] | 0.0004 | 0.0005
14 | NC1=N[C@@H](CCc2ccc(NC(=O)CCC3CC3)cc2)CO1 [Example 170, (S)-N-(4-(2-(2-Amino-4,5-dihydrooxazol-4-yl)ethyl)phenyl)-3-cyclopropylpropanamide] | 0.0074 | 0.0018
